According to the supplement of paper PMC10307832:

Experiments:
Experiment in all cases: relative viability (nuclei count vs DMSO), 5 days (fraction); higher = more cells survive
BI-D1870 + OSI-027 = compound: CC(C)CCN1c2nc(Nc3cc(F)c(O)c(F)c3)ncc2N(C)C(=O)C1C [BI-D1870] + COc1cccc2cc(-c3nc([C@H]4CC[C@H](C(=O)O)CC4)n4ncnc(N)c34)[nH]c12 [OSI-027] (partner 0.5 µM)
Summary of the method: (§1)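 After 5 days of treatment, lung cancer cells in 1536-well plates were fixed and stained in a single step (final 0.05% Triton X-100, 1% formaldehyde, 1 ug/ml Hoechst) and their nuclei counted on 4× images. Treatment had been applied by pin tool the day after seeding as one drug alone or as a fixed anchor-drug dose with five library-drug doses (not always all listed) in √10 steps. Relative viability is the nuclei count of treated wells divided by that of vehicle wells, and values are medians of duplicate plates.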

BI-D1870 + Vorinostat = compound: CC(C)CCN1c2nc(Nc3cc(F)c(O)c(F)c3)ncc2N(C)C(=O)C1C [BI-D1870] + O=C(CCCCCCC(=O)Nc1ccccc1)NO [Vorinostat] (partner 1 µM)
Summary of the method: as §1

Zebularine + Navitoclax = compound: O=c1ncccn1[C@@H]1O[C@H](CO)[C@@H](O)[C@H]1O [Zebularine] + CC1(C)CCC(c2ccc(Cl)cc2)=C(CN2CCN(c3ccc(C(=O)NS(=O)(=O)c4ccc(N[C@H](CCN5CCOCC5)CSc5ccccc5)c(S(=O)(=O)C(F)(F)F)c4)cc3)CC2)C1 [Navitoclax] (partner 0.5 µM)
Summary of the method: as §1

Zebularine + Linsitinib = compound: O=c1ncccn1[C@@H]1O[C@H](CO)[C@@H](O)[C@H]1O [Zebularine] + C[C@]1(O)C[C@@H](c2nc(-c3ccc4ccc(-c5ccccc5)nc4c3)c3c(N)nccn32)C1 [Linsitinib] (partner 1 µM)
Summary of the method: as §1

NCI-H520
relative viability (BI-D1870 + OSI-027; first compound 0.04 µM): 0.226
relative viability (BI-D1870 + OSI-027; first compound 0.1265 µM): 0.205
relative viability (BI-D1870 + OSI-027; first compound 0.4 µM): 0.252
relative viability (BI-D1870 + OSI-027; first compound 1.265 µM): 0.291
relative viability (BI-D1870 + OSI-027; first compound 4 µM): 0.2
relative viability (BI-D1870 + Vorinostat; first compound 0.04 µM): 0.716
relative viability (BI-D1870 + Vorinostat; first compound 0.1265 µM): 0.755
relative viability (BI-D1870 + Vorinostat; first compound 0.4 µM): 0.649
relative viability (BI-D1870 + Vorinostat; first compound 1.265 µM): 0.464
relative viability (BI-D1870 + Vorinostat; first compound 4 µM): 0.198
relative viability (Zebularine + Navitoclax; first compound 1 µM): 1.16
relative viability (Zebularine + Navitoclax; first compound 3.162 µM): 0.994
relative viability (Zebularine + Navitoclax; first compound 10 µM): 0.442
relative viability (Zebularine + Navitoclax; first compound 31.62 µM): 0.427
relative viability (Zebularine + Navitoclax; first compound 100 µM): 0.294
relative viability (Zebularine + Linsitinib; first compound 1 µM): 0.98
relative viability (Zebularine + Linsitinib; first compound 3.162 µM): 1.02
relative viability (Zebularine + Linsitinib; first compound 10 µM): 0.47
relative viability (Zebularine + Linsitinib; first compound 31.62 µM): 0.297
relative viability (Zebularine + Linsitinib; first compound 100 µM): 0.199

NCI-H596
relative viability (BI-D1870 + OSI-027; first compound 0.04 µM): 0.797
relative viability (BI-D1870 + OSI-027; first compound 0.1265 µM): 0.704
relative viability (BI-D1870 + OSI-027; first compound 0.4 µM): 0.95
relative viability (BI-D1870 + OSI-027; first compound 1.265 µM): 0.572
relative viability (BI-D1870 + OSI-027; first compound 4 µM): 0.5
relative viability (BI-D1870 + Vorinostat; first compound 0.04 µM): 0.666
relative viability (BI-D1870 + Vorinostat; first compound 0.1265 µM): 0.591
relative viability (BI-D1870 + Vorinostat; first compound 0.4 µM): 0.65
relative viability (BI-D1870 + Vorinostat; first compound 1.265 µM): 0.59
relative viability (BI-D1870 + Vorinostat; first compound 4 µM): 0.511
relative viability (Zebularine + Navitoclax; first compound 1 µM): 0.974
relative viability (Zebularine + Navitoclax; first compound 3.162 µM): 0.9
relative viability (Zebularine + Navitoclax; first compound 10 µM): 0.799
relative viability (Zebularine + Navitoclax; first compound 31.62 µM): 0.984
relative viability (Zebularine + Navitoclax; first compound 100 µM): 0.893
relative viability (Zebularine + Linsitinib; first compound 1 µM): 1.03
relative viability (Zebularine + Linsitinib; first compound 3.162 µM): 1.04
relative viability (Zebularine + Linsitinib; first compound 10 µM): 0.832
relative viability (Zebularine + Linsitinib; first compound 31.62 µM): 1.06
relative viability (Zebularine + Linsitinib; first compound 100 µM): 1.01

NCI-H647
relative viability (BI-D1870 + OSI-027; first compound 0.04 µM): 0.657
relative viability (BI-D1870 + OSI-027; first compound 0.1265 µM): 0.519
relative viability (BI-D1870 + OSI-027; first compound 0.4 µM): 0.664
relative viability (BI-D1870 + OSI-027; first compound 1.265 µM): 0.855
relative viability (BI-D1870 + OSI-027; first compound 4 µM): 0.53
relative viability (BI-D1870 + Vorinostat; first compound 0.04 µM): 0.666
relative viability (BI-D1870 + Vorinostat; first compound 0.1265 µM): 0.346
relative viability (BI-D1870 + Vorinostat; first compound 0.4 µM): 0.669
relative viability (BI-D1870 + Vorinostat; first compound 1.265 µM): 0.536
relative viability (BI-D1870 + Vorinostat; first compound 4 µM): 0.335
relative viability (Zebularine + Navitoclax; first compound 1 µM): 1.25
relative viability (Zebularine + Navitoclax; first compound 3.162 µM): 1.06
relative viability (Zebularine + Navitoclax; first compound 10 µM): 0.232
relative viability (Zebularine + Navitoclax; first compound 31.62 µM): 0.143
relative viability (Zebularine + Navitoclax; first compound 100 µM): 0.115
relative viability (Zebularine + Linsitinib; first compound 1 µM): 1.42
relative viability (Zebularine + Linsitinib; first compound 3.162 µM): 1.06
relative viability (Zebularine + Linsitinib; first compound 10 µM): 0.426
relative viability (Zebularine + Linsitinib; first compound 31.62 µM): 0.172
relative viability (Zebularine + Linsitinib; first compound 100 µM): 0.17

NCI-H727
relative viability (BI-D1870 + OSI-027; first compound 0.04 µM): 0.559
relative viability (BI-D1870 + OSI-027; first compound 0.1265 µM): 0.518
relative viability (BI-D1870 + OSI-027; first compound 0.4 µM): 0.646
relative viability (BI-D1870 + OSI-027; first compound 1.265 µM): 1.01
relative viability (BI-D1870 + OSI-027; first compound 4 µM): 0.517
relative viability (BI-D1870 + Vorinostat; first compound 0.04 µM): 1.32
relative viability (BI-D1870 + Vorinostat; first compound 0.1265 µM): 1.22
relative viability (BI-D1870 + Vorinostat; first compound 0.4 µM): 0.986
relative viability (BI-D1870 + Vorinostat; first compound 1.265 µM): 1.19
relative viability (BI-D1870 + Vorinostat; first compound 4 µM): 1.08
relative viability (Zebularine + Navitoclax; first compound 1 µM): 0.492
relative viability (Zebularine + Navitoclax; first compound 3.162 µM): 0.451
relative viability (Zebularine + Navitoclax; first compound 10 µM): 0.474
relative viability (Zebularine + Navitoclax; first compound 31.62 µM): 0.442
relative viability (Zebularine + Navitoclax; first compound 100 µM): 0.411
relative viability (Zebularine + Linsitinib; first compound 1 µM): 0.3
relative viability (Zebularine + Linsitinib; first compound 3.162 µM): 0.3
relative viability (Zebularine + Linsitinib; first compound 10 µM): 0.286
relative viability (Zebularine + Linsitinib; first compound 31.62 µM): 0.365
relative viability (Zebularine + Linsitinib; first compound 100 µM): 0.203

NCI-H838
relative viability (BI-D1870 + OSI-027; first compound 0.04 µM): 0.378
relative viability (BI-D1870 + OSI-027; first compound 0.1265 µM): 0.352
relative viability (BI-D1870 + OSI-027; first compound 0.4 µM): 0.349
relative viability (BI-D1870 + OSI-027; first compound 1.265 µM): 0.47
relative viability (BI-D1870 + OSI-027; first compound 4 µM): 0.462
relative viability (BI-D1870 + Vorinostat; first compound 0.04 µM): 0.719
relative viability (BI-D1870 + Vorinostat; first compound 0.1265 µM): 0.643
relative viability (BI-D1870 + Vorinostat; first compound 0.4 µM): 0.682
relative viability (BI-D1870 + Vorinostat; first compound 1.265 µM): 0.68
relative viability (BI-D1870 + Vorinostat; first compound 4 µM): 0.558
relative viability (Zebularine + Navitoclax; first compound 1 µM): 1.2
relative viability (Zebularine + Navitoclax; first compound 3.162 µM): 1.21
relative viability (Zebularine + Navitoclax; first compound 10 µM): 0.561
relative viability (Zebularine + Navitoclax; first compound 31.62 µM): 0.815
relative viability (Zebularine + Navitoclax; first compound 100 µM): 0.403
relative viability (Zebularine + Linsitinib; first compound 1 µM): 1.14
relative viability (Zebularine + Linsitinib; first compound 3.162 µM): 1.02
relative viability (Zebularine + Linsitinib; first compound 10 µM): 0.733
relative viability (Zebularine + Linsitinib; first compound 31.62 µM): 0.751
relative viability (Zebularine + Linsitinib; first compound 100 µM): 0.319

NCI-H1355
relative viability (BI-D1870 + OSI-027; first compound 0.04 µM): 0.464
relative viability (BI-D1870 + OSI-027; first compound 0.1265 µM): 0.36
relative viability (BI-D1870 + OSI-027; first compound 0.4 µM): 0.361
relative viability (BI-D1870 + OSI-027; first compound 1.265 µM): 0.425
relative viability (BI-D1870 + OSI-027; first compound 4 µM): 0.308
relative viability (BI-D1870 + Vorinostat; first compound 0.04 µM): 0.74
relative viability (BI-D1870 + Vorinostat; first compound 0.1265 µM): 0.613
relative viability (BI-D1870 + Vorinostat; first compound 0.4 µM): 0.657
relative viability (BI-D1870 + Vorinostat; first compound 1.265 µM): 0.731
relative viability (BI-D1870 + Vorinostat; first compound 4 µM): 0.608
relative viability (Zebularine + Navitoclax; first compound 1 µM): 0.955
relative viability (Zebularine + Navitoclax; first compound 3.162 µM): 0.894
relative viability (Zebularine + Navitoclax; first compound 10 µM): 0.898
relative viability (Zebularine + Navitoclax; first compound 31.62 µM): 0.456
relative viability (Zebularine + Navitoclax; first compound 100 µM): 0.306
relative viability (Zebularine + Linsitinib; first compound 1 µM): 1
relative viability (Zebularine + Linsitinib; first compound 3.162 µM): 0.769
relative viability (Zebularine + Linsitinib; first compound 10 µM): 0.752
relative viability (Zebularine + Linsitinib; first compound 31.62 µM): 0.513
relative viability (Zebularine + Linsitinib; first compound 100 µM): 0.283

NCI-H1395
relative viability (BI-D1870 + OSI-027; first compound 0.04 µM): 0.717
relative viability (BI-D1870 + OSI-027; first compound 0.1265 µM): 0.639
relative viability (BI-D1870 + OSI-027; first compound 0.4 µM): 0.658
relative viability (BI-D1870 + OSI-027; first compound 1.265 µM): 0.616
relative viability (BI-D1870 + OSI-027; first compound 4 µM): 0.593
relative viability (BI-D1870 + Vorinostat; first compound 0.04 µM): 0.774
relative viability (BI-D1870 + Vorinostat; first compound 0.1265 µM): 0.641
relative viability (BI-D1870 + Vorinostat; first compound 0.4 µM): 0.801
relative viability (BI-D1870 + Vorinostat; first compound 1.265 µM): 0.705
relative viability (BI-D1870 + Vorinostat; first compound 4 µM): 0.597
relative viability (Zebularine + Navitoclax; first compound 1 µM): 0.99
relative viability (Zebularine + Navitoclax; first compound 3.162 µM): 1.37
relative viability (Zebularine + Navitoclax; first compound 10 µM): 0.919
relative viability (Zebularine + Navitoclax; first compound 31.62 µM): 0.629
relative viability (Zebularine + Navitoclax; first compound 100 µM): 0.473
relative viability (Zebularine + Linsitinib; first compound 1 µM): 1.03
relative viability (Zebularine + Linsitinib; first compound 3.162 µM): 1.09
relative viability (Zebularine + Linsitinib; first compound 10 µM): 0.869
relative viability (Zebularine + Linsitinib; first compound 31.62 µM): 0.653
relative viability (Zebularine + Linsitinib; first compound 100 µM): 0.533

NCI-H1437
relative viability (BI-D1870 + OSI-027; first compound 0.04 µM): 0.924
relative viability (BI-D1870 + OSI-027; first compound 0.1265 µM): 0.788
relative viability (BI-D1870 + OSI-027; first compound 0.4 µM): 0.807
relative viability (BI-D1870 + OSI-027; first compound 1.265 µM): 0.941
relative viability (BI-D1870 + OSI-027; first compound 4 µM): 0.786
relative viability (BI-D1870 + Vorinostat; first compound 0.04 µM): 0.809
relative viability (BI-D1870 + Vorinostat; first compound 0.1265 µM): 0.747
relative viability (BI-D1870 + Vorinostat; first compound 0.4 µM): 0.749
relative viability (BI-D1870 + Vorinostat; first compound 1.265 µM): 0.76
relative viability (BI-D1870 + Vorinostat; first compound 4 µM): 0.492
relative viability (Zebularine + Navitoclax; first compound 1 µM): 1.23
relative viability (Zebularine + Navitoclax; first compound 3.162 µM): 1.16
relative viability (Zebularine + Navitoclax; first compound 31.62 µM): 0.99
relative viability (Zebularine + Navitoclax; first compound 100 µM): 0.364
relative viability (Zebularine + Linsitinib; first compound 1 µM): 1.18
relative viability (Zebularine + Linsitinib; first compound 3.162 µM): 1.2
relative viability (Zebularine + Linsitinib; first compound 31.62 µM): 0.989
relative viability (Zebularine + Linsitinib; first compound 100 µM): 0.342
